Assay results from patent US5043332A, “Novel 11β-substituted -19-nor-steriods” (priority 1981, dated 1991).

How the values were obtained:
[1] = target: T1, Mineralcorticoidal receptor of kidneys of the rat (Rattus norvegicus, UniProt P22199); experiment: Mineralcorticoidal receptor binding (displacement of tritiated aldosterone)
T1 construct: from tissue; host or cells: rat kidney, 105,000 g supernatant (adrenalectomized male Sprague-Dawley rats)
T1 sequence (P22199 1-981): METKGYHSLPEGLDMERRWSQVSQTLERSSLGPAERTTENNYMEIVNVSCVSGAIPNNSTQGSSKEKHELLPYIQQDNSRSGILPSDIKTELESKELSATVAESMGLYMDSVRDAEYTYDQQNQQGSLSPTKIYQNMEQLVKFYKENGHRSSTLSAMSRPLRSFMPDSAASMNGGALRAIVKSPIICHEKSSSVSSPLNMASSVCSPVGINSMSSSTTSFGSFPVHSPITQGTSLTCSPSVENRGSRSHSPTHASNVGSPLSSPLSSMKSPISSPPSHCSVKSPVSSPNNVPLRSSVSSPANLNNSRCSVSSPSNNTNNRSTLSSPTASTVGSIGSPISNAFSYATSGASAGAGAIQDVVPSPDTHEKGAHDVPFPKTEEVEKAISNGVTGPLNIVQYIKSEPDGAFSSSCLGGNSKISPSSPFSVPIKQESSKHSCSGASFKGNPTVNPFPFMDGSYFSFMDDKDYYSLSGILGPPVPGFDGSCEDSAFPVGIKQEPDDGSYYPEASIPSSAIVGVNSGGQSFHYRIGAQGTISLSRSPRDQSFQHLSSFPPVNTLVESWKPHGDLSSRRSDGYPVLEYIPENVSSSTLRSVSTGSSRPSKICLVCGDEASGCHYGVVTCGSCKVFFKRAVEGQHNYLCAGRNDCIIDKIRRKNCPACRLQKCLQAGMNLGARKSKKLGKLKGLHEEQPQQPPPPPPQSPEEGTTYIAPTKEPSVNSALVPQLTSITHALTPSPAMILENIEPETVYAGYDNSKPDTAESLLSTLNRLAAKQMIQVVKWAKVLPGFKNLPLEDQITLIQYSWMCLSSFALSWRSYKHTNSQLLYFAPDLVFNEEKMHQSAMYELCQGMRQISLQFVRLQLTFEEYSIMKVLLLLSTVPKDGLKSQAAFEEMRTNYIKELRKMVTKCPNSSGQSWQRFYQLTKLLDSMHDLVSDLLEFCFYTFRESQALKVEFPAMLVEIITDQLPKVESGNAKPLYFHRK
Protocol: A. Mineralcorticoidal receptor of kidneys of the rat
Male Sprague-Dawley EOPS rats weighing 140 to 160 g surrenalectomized 4 to 8 days previously were killed and their kidneys were perfused in situ with 50 ml of a buffer (10 mM of Tris 0.25M of Saccharose and sufficient hydrochloric acid for a pH of 7.4). The kidneys were then removed, decapsulated and homogenized at 0° C. with a polytetrafluoroethylene-glass Potter (1 g of tissue per 3 ml of buffer). The homogenate was centrifuged for 10 minutes at 800 g at 9° C.
After elimination of the fixation of tritiated aldosterone with glucocorticoid receptor, 21-methyl-Δ^1,4,6 -pregnatriene-20-yne-11β,17β-diol-3-one fixed only with the glucocorticoid receptor was added to the supernatant at a final concentration of 10^-6 M. The suprenatant was ultracentrifuged at 105,000 g for 60 minutes and 0° C. and aliquoits of the resulting surnageant were incubated at 0° C. with a constant concentration (T) of tritiated aldosterone in the presence of increasing concentrations (0-2500×10^-9 M) of cold aldosterone or the cold test product. After a time (t) of incubation, the concentration of tied tritiated aldosterone (B) was measured by the technique of adsoprtion on carbon dextran.
(§1) The calculation of the relative affinity of […] (ARL) was identical for all of the above receptor tests. One traced the following two curves: the percentage of tied tritiated hormone B/T as a function of the logarithm of the cold hormone concentration and B/T as a function of the logarithm of the concentration of the cold test product. One determined the line of the equation. [formula]
(§2) The intersection of the I50 line and the curves permits one to determine the concentrations of the cold hormone of the reference (CH) and the cold test compound (CX) which inhibit by 50% the tieing of tritiated hormone with the receptor. The relative affinity of tieing (ARL) of the test product was determined by the equation: [formula]

[2] = target: T2, Progestogen receptor of the uterus of rabbits (Oryctolagus cuniculus, UniProt P06186); experiment: Progestogen receptor binding (displacement of tritiated product R); set-up: species or system rabbit; conditions: for affinity for progestogen receptors (in words): conclusion
T2 construct: The uterus was removed, weighed and homogenized at 0° C; from tissue; host or cells: rabbit uterus, 105,000 g supernatant (estradiol-primed immature rabbits)
T2 sequence (P06186 1-930): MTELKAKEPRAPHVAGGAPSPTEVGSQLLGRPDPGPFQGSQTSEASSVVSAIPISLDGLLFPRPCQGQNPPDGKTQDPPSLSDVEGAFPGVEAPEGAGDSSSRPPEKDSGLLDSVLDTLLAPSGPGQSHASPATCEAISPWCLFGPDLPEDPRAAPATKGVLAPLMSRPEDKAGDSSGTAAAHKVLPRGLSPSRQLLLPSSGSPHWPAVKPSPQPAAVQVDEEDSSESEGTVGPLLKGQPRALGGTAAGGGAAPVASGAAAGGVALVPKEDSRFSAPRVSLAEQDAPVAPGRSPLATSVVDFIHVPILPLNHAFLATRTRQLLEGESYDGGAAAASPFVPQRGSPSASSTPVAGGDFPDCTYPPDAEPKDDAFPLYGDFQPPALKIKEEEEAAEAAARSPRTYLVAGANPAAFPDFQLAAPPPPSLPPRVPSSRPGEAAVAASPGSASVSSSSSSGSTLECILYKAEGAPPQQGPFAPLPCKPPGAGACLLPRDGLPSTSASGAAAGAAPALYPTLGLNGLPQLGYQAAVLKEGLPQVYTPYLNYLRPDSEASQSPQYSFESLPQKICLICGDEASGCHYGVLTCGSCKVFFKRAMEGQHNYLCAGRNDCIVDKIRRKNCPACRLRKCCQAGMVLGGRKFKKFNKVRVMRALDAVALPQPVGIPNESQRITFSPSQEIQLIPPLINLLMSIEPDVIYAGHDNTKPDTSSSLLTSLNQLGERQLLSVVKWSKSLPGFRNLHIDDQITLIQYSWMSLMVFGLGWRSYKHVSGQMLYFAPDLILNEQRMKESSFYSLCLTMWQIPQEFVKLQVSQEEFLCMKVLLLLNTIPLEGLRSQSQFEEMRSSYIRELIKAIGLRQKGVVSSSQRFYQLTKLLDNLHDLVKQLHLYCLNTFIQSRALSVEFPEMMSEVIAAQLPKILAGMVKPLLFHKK
Protocol: C. Progestogen receptor of the uterus of rabbits
Immature rabbits weighing about 1 kg received a cutaneous application of 25 μg of estradiol and the animals were killed 5 days later. The uterus was removed, weighed and homogenized at 0° C. with a polytetrafluoroethylene-glass Potter, in a buffered TS solution [Tris 10. mM, 0.25M of saccharose, HCl-pH of 7.4] with 1 g of tissue per 50 ml of TS. […] The concentration of tied tritiated R (B) was then measured for each incubate by the technique of adsoprtion on carbon-dextran.
as §1, §2

[3] = second table, incubation 24 H at 0° C.
[4] = second table, incubation 2 H at 0° C.

relative affinity of tieing (ARL), Mineralocorticoid ([1]; incubation 1 H at 0° C.) | relative affinity of tieing (ARL), Mineralocorticoid ([1]; incubation 24 H at 0° C.) | relative affinity of tieing (ARL), Progestogen ([2]; incubation 2 H at 0° C.) | relative affinity of tieing (ARL), Progestogen ([2]; incubation 24 H at 0° C.) | relative affinity of tieing (ARL), Mineralocorticoid [1, 3] | relative affinity of tieing (ARL), Progestogen [2, 4] | relative affinity of tieing (ARL), Progestogen [2, 3] | Structure (SMILES) | affinity for progestogen receptors (in words) [2]
< 0,1 | < 0,1 | 40 | 39 |  |  |  | CC#C[C@]1(O)CC[C@H]2[C@@H]3CCC4=CC(=O)[C@H](C)CC4=C3[C@@H](c3ccc(N(C)C)cc3)C[C@@]21C [5 (2α), 2α-methyl-11β-(4-dimethylaminophenyl)-17α-(prop-1-ynyl)-Δ^4,9-estradiene-17β-ol-3-one] | 
< 0,1 | < 0,1 | 44 | 44 |  |  |  | CC#C[C@]1(O)CC[C@H]2[C@@H]3CCC4=CC(=O)[C@@H](C)CC4=C3[C@@H](c3ccc(N(C)C)cc3)C[C@@]21C [5 (2β), 2-methyl-11β-(4-dimethylaminophenyl)-17α-(prop-1-ynyl)-Δ^4,9-estradiene-17β-ol-3-one] | 
< 0,1 | < 0,1 | 4 | 4 |  |  |  | CC#C[C@]1(O)CC[C@H]2[C@@H]3CCC4=CC(=O)C(C)(C)CC4=C3[C@@H](c3ccc(N(C)C)cc3)C[C@@]21C [Example 1, 2,2-dimethyl-11β-(4-dimethylaminophenyl)-17α-(prop-1-ynyl)-Δ^4,9-estradiene-17β-ol-3-one] | 
 |  |  |  |  |  |  | CC#C[C@]1(O)CC[C@H]2[C@@H]3CCC4=CC(=O)[C@H](C)CC4=C3[C@@H](c3ccc(N(C)C)cc3)C[C@@]21C [Example 5, 2α-methyl-11β-(4-dimethylaminophenyl)-17α-(prop-1-ynyl)-Δ^4,9-estradiene-17β-ol-3-one] | very remarkable affinity
< 0,1 | < 0,1 | < 0,1 | < 0,1 |  |  |  | CC#C[C@]1(O)CC[C@H]2[C@@H]3CCC4=CC(=O)C(C#N)(C#N)CC4=C3[C@@H](c3ccc(N(C)C)cc3)C[C@@]21C [Example 9, 2,2-dicyano-11β-(4-dimethylaminophenyl)-17α-(prop-1-ynyl)-Δ^4,9-estradiene-17β-ol-3-one] | 
 |  |  |  |  |  |  | CC#C[C@]1(O)CC[C@H]2[C@@H]3CCC4=CC(=O)CCC4=C3[C@@H](c3ccc(N(C)C)cc3)C[C@@]21C [Example 19, 11β-[4-(N,N-dimethylamino)-phenyl]-17α-(prop-1-ynyl)-Δ^4,9-estradiene-17β-ol-3-one] | very remarkable affinity
 |  |  |  | 0,8 | 10 | 4,3 | C#C[C@@]1(O)CC[C@H]2[C@@H]3CCC4=CC(=O)CCC4=C3[C@@H](c3ccc(N(C)C)cc3)C[C@@]21C [Example 21, 11β-[4-(N,N-dimethylamino)-phenyl]-17β-ethynyl-Δ^4,9-estradiene-17α-ol-3-one] | 
 |  |  |  | 0 | 81 | 268 | C=C(C)C#C[C@]1(O)CC[C@H]2[C@@H]3CCC4=CC(=O)CCC4=C3[C@@H](c3ccc(N(C)C)cc3)C[C@@]21C [Example 23, 11β-[4-(N,N-dimethylamino)-phenyl]-23-methyl-19,21-dinor-17α-Δ^4,9,23-cholatriene-20-yn-17β-ol-3-one] | 
 |  |  |  |  | 41 | 250 | CN(C)c1ccc([C@H]2C[C@@]3(C)[C@@H](CC[C@@]3(O)C#Cc3ccccc3)[C@@H]3CCC4=CC(=O)CCC4=C32)cc1 [Example 29, 11β-[4-(N,N-dimethylamino)-phenyl]-21-phenyl-19-nor-17α-Δ^4,9-pregnadiene-20-yne-17β-ol-3-one] | 
 |  |  |  |  | 1,1 | 2,5 | CC#C[C@]1(O)CC[C@H]2[C@@H]3CCC4=CC(=O)CCC4=C3[C@@H](c3ccc([N+](C)(C)[O-])cc3)C[C@@]21C [Example 35, N-oxide of 11β-[4-(N,N-dimethylamino)-phenyl]-17α-(prop-1-ynyl)-Δ^4,9-estradiene-17β-ol-3-one] | 

Structure (SMILES) | relative affinity of tieing (ARL), Mineralocorticoid ([1]; incubation 1 H at 0° C.) | relative affinity of tieing (ARL), Mineralocorticoid ([1]; incubation 24 H at 0° C.) | relative affinity of tieing (ARL), Progestogen ([2]; incubation 2 H at 0° C.) | relative affinity of tieing (ARL), Progestogen ([2]; incubation 24 H at 0° C.) | relative affinity of tieing (ARL), Mineralocorticoid [1, 3] | relative affinity of tieing (ARL), Progestogen [2, 4] | relative affinity of tieing (ARL), Progestogen [2, 3] | affinity for progestogen receptors (in words) [2]
CC#C[C@]1(OC(C)=O)CC[C@H]2[C@@H]3CCc4cc(O)ccc4[C@H]3[C@@H](c3ccc(N(C)C)cc3)C[C@@]21C [2 (17 OAc), 11β-(4-dimethylaminophenyl)-17α-(prop-1-ynyl)-17β-acetoxy-Δ^1,3,5(10) -estratriene-3-ol] | < 0,1 | < 0,1 | 5 | 52 |  |  |  | 
CC#C[C@]1(O)CC[C@H]2[C@@H]3CCC4=C(CCC(=O)C4)[C@H]3[C@@H](c3ccc(N(C)C)cc3)C[C@@]21C [Example 10, 11β-(4-dimethylaminophenyl)-17α-(prop-1-ynyl)-Δ^5(10) -estrene-17β-ol-3-one] | 1,5 | < 0,1 | 27 | 62 |  |  |  | 
